Tests used:
[1] = target: T1, Histone deacetylase 8 (Schistosoma mansoni) (UniProt A5H660); assay: Inhibition of Schistosoma mansoni KDAC8 at 30 uM using (FAM)-labeled peptide as substrate after 60 mins by microfluidic assay
T1 sequence (whole entry): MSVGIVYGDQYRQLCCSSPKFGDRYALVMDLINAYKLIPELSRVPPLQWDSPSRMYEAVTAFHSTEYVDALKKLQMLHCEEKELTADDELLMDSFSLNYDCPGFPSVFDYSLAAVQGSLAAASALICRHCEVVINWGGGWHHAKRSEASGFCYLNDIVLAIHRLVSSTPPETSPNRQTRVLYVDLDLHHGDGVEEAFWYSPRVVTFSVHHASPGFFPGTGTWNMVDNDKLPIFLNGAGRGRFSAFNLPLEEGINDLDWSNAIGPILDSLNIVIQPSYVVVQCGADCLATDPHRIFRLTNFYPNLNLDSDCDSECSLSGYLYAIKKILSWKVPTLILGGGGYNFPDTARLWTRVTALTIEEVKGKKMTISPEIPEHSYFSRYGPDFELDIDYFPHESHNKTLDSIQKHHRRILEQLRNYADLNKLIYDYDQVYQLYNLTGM

Histone deacetylase 8 = target: T2, Histone deacetylase 8 (Schistosoma mansoni, UniProt A5H660); assay: Inhibition of Schistosoma mansoni KDAC8 using (FAM)-labeled peptide as substrate after 60 mins by microfluidic assay
T2 sequence (A5H660 whole entry): T1 sequence (whole entry)

SMILES | inhibition [1] | other results
O=C1CN=C(c2ccccc2)c2ccccc2N1 [RO-052921] | 9.5% | IC50 (Histone deacetylase 8; read-out: IC50): > 30 µM
CC(C)(C)OC(=O)n1c(C[C@@H]2N=C(c3ccccc3)c3ccccc3N(CCCCC(=O)O)C2=O)cc2ccccc21 | 0% | IC50 (Histone deacetylase 8; read-out: IC50): > 30 µM
COC(=O)CCCCN1C(=O)CN=C(c2ccccc2)c2ccccc21 | 0% | IC50 (Histone deacetylase 8; read-out: IC50): > 30 µM
COC(=O)CCCCN1C(=O)[C@H](Cc2cc3ccccc3n2C(=O)OC(C)(C)C)N=C(c2ccccc2)c2ccccc21 | 0% | IC50 (Histone deacetylase 8; read-out: IC50): > 30 µM
CCCCCCCC(=O)SCC/C=C/[C@@H]1CC(=O)NCc2nc(cs2)C2=N[C@@](C)(CS2)C(=O)N[C@@H](C(C)C)C(=O)O1 [LARGAZOLE] | 4% | IC50 (Histone deacetylase 8; read-out: IC50): > 30 µM
CCC(=O)CCCCC[C@@H]1NC(=O)C2CCCCN2C(=O)[C@H](C(C)CC)NC(=O)[C@H](Cc2cn(OC)c3ccccc23)NC1=O (some centres undefined) |  | IC50 (Histone deacetylase 8; read-out: IC50): 28.8 µM
CC(C)(C)OC(=O)C[C@H]1N=C(c2ccccc2)c2ccccc2NC1=O | 0% | IC50 (Histone deacetylase 8; read-out: IC50): > 30 µM
C[C@@H]1N=C(c2ccccc2)c2ccccc2NC1=O | 0% | IC50 (Histone deacetylase 8; read-out: IC50): > 30 µM
CC(C)[C@@H]1N=C(c2ccccc2)c2ccccc2N(CCCCC(=O)O)C1=O | 0% | IC50 (Histone deacetylase 8; read-out: IC50): > 30 µM
COC(=O)CCCCN1C(=O)[C@H](CC(=O)OC(C)(C)C)N=C(c2ccccc2)c2ccccc21 | 0% | IC50 (Histone deacetylase 8; read-out: IC50): > 30 µM
Cc1[nH]c2ccccc2c1CCNCc1ccc(/C=C/C(=O)NO)cc1 [PANOBINOSTAT] |  | IC50 (Histone deacetylase 8; read-out: IC50): 0.45 µM
CC(C)(C)OC[C@@H]1N=C(c2ccccc2)c2ccccc2N(CCCCC(=O)NO)C1=O | 15.7% | IC50 (Histone deacetylase 8; read-out: IC50): > 30 µM
NCCCC[C@@H]1N=C(c2ccccc2)c2ccccc2N(CCCCC(=O)NO)C1=O | 4.32% | IC50 (Histone deacetylase 8; read-out: IC50): > 30 µM
O=C(CC[C@@H]1N=C(c2ccccc2)c2ccccc2NC1=O)NC(c1ccccc1)(c1ccccc1)c1ccccc1 | 10.4% | IC50 (Histone deacetylase 8; read-out: IC50): > 30 µM
O=C(CCCCN1C(=O)CN=C(c2ccccc2)c2ccccc21)NO | 39.7% | IC50 (Histone deacetylase 8; read-out: IC50): > 30 µM
CC(/C=C/C(=O)NO)=C\[C@@H](C)C(=O)c1ccc(N(C)C)cc1 [TRICHOSTATIN] |  | IC50 (Histone deacetylase 8; read-out: IC50): 3.62 µM
COC(=O)CCCCN1C(=O)[C@H](C(C)C)N=C(c2ccccc2)c2ccccc21 | 0% | IC50 (Histone deacetylase 8; read-out: IC50): > 30 µM
COC(=O)CCCCN1C(=O)[C@H](CCCCNC(=O)OC(C)(C)C)N=C(c2ccccc2)c2ccccc21 | 0% | IC50 (Histone deacetylase 8; read-out: IC50): > 30 µM
CN1CCc2c(c3ccccc3n2Cc2ccc(C(=O)NO)cc2)C1 [TUBASTATIN A] |  | IC50 (Histone deacetylase 8; read-out: pIC50 (converted)): 1.48 µM
C[C@H]1Sc2ccc(C(=O)NO)cc2NC1=O |  | IC50 (Histone deacetylase 8; read-out: pIC50 (converted)): 1.48 µM
COC(=O)[C@H](Cc1ccccc1)NC(=O)CCCCCCCCC(=O)NO |  | IC50 (Histone deacetylase 8; read-out: pIC50 (converted)): 0.794 µM
O=C(CCCCCN1C(=O)c2cccc3cccc(c23)C1=O)NO |  | IC50 (Histone deacetylase 8; read-out: IC50): 1.77 µM
CN(C)c1ccc(C(=O)NCC2CCC(C(=O)NO)CC2)cc1 (centres undefined) |  | IC50 (Histone deacetylase 8; read-out: pIC50 (converted)): 12 µM

SMILES | inhibition [1] | other results
O=C(NO)c1sc2ccccc2c1Cl |  | IC50 (Histone deacetylase 8; read-out: pIC50 (converted)): 4.37 µM
Cn1cc(C2=C(c3cn(CCCCCC(=O)NO)c4ccccc34)C(=O)NC2=O)c2ccccc21 |  | IC50 (Histone deacetylase 8; read-out: pIC50 (converted)): 1.41 µM
CC(C)[C@@H]1NC(=O)[C@@H]2CCCN2C(=O)[C@H]2CCCN2C(=O)C[C@@H](C(=O)NCCSSCCNP(=O)(Oc2ccccc2)Oc2ccccc2)NC1=O | 0% | 
CC(C)[C@@H]1NC(=O)[C@H]2CCCN2C(=O)[C@@H]2CCCN2C(=O)C[C@H](C(=O)NCCCS)NC1=O | 3.18% | 
O=C(NO)c1cccc(NN(Cc2ccccc2)Cc2ccccc2)c1 |  | IC50 (Histone deacetylase 8; read-out: pIC50 (converted)): 9.33 µM
CC(C)[C@@H]1NC(=O)[C@@H]2CCCN2C(=O)[C@H]2CCCN2C(=O)C[C@@H](C(=O)NCCCC(=O)O)NC1=O | 0% | 
CC(C)[C@@H]1NC(=O)[C@H]2CCCN2C(=O)[C@@H]2CCCN2C(=O)C[C@H](C(=O)NCCCSSCCCNC(=O)[C@H]2CC(=O)N3CCC[C@H]3C(=O)N3CCC[C@@H]3C(=O)N[C@@H](C(C)C)C(=O)N2)NC1=O | 3.36% | 
COc1ccc(Cn2ccc3ccc(C(=O)NO)cc32)cc1 |  | pIC50 (Histone deacetylase 8): 1.03 to 6.36
O=C(NO)C1CCN(S(=O)(=O)c2ccc3c(c2)CCC3)CC1 |  | IC50 (Histone deacetylase 8; read-out: pIC50 (converted)): 3.02 µM
CN(C)c1ccc(C(=O)NCc2ccc(C(=O)NO)cc2)cc1 |  | IC50 (Histone deacetylase 8; read-out: pIC50 (converted)): 2.88 µM
N[C@H](Cc1ccc(Cl)cc1Cl)C(=O)N1Cc2ccccc2C1 |  | IC50 (Histone deacetylase 8; read-out: IC50): 29.1 µM
CC(C)[C@@H]1NC(=O)[C@H]2CCCN2C(=O)[C@@H]2CCCN2C(=O)C[C@@H](C(=O)NCCCC(=O)O)NC1=O | 0% | 
CC(C)[C@@H]1NC(=O)[C@@H]2CCCN2C(=O)[C@H]2CCCN2C(=O)C[C@@H](C(=O)NCCCS(C)(=O)=O)NC1=O | 0% | 
COC(=O)CCCNC(=O)[C@H]1CC(=O)N2CCC[C@H]2C(=O)N2CCC[C@@H]2C(=O)N[C@@H](C(C)C)C(=O)N1 | 1.47% | 
CC(C)[C@@H]1NC(=O)[C@@H]2CCCN2C(=O)[C@H]2CCCN2C(=O)C[C@H](C(=O)NCCCC(=O)O)NC1=O | 0% | 
CSCCCNC(=O)[C@H]1CC(=O)N2CCC[C@H]2C(=O)N2CCC[C@@H]2C(=O)N[C@@H](C(C)C)C(=O)N1 | 0% | 
CC(C)[C@@H]1NC(=O)[C@@H]2CCCN2C(=O)[C@H]2CCCN2C(=O)C[C@@H](C(=O)O)NC1=O | 0% | 
CC(C)[C@@H]1NC(=O)[C@@H]2CCCN2C(=O)[C@H]2CCCN2C(=O)C[C@H](C(=O)NCCCSSCCCNC(=O)[C@H]2CC(=O)N3CCC[C@@H]3C(=O)N3CCC[C@H]3C(=O)N[C@@H](C(C)C)C(=O)N2)NC1=O | 0% | 
CC(C)[C@@H]1NC(=O)[C@H]2CCCN2C(=O)[C@@H]2CCCN2C(=O)C[C@H](C(=O)NCCS)NC1=O | 0% | 
CC(C)[C@@H]1NC(=O)[C@@H]2CCCN2C(=O)[C@H]2CCCN2C(=O)C[C@H](C(=O)NCCSSCCNP(=O)(Oc2ccccc2)Oc2ccccc2)NC1=O | 3% | 
CN(C)Nc1cccc(C(=O)NO)c1 |  | IC50 (Histone deacetylase 8; read-out: pIC50 (converted)): 1.58 µM
CC(C)[C@@H]1NC(=O)[C@@H]2CCCN2C(=O)[C@H]2CCCN2C(=O)C[C@H](C(=O)NCCCO)NC1=O | 0% | 
CC(C)[C@@H]1NC(=O)[C@@H]2CCCN2C(=O)[C@H]2CCCN2C(=O)C[C@@H](C(=O)OCc2ccccc2)NC1=O | 0% | 

SMILES | inhibition [1] | other results
CC(C)[C@@H]1NC(=O)[C@H]2CCCN2C(=O)[C@@H]2CCCN2C(=O)C[C@@H](C(=O)NCCC[S+](C)[O-])NC1=O (some centres undefined) | 0% | 
CC(C)[C@@H]1NC(=O)[C@@H]2CCCN2C(=O)[C@H]2CCCN2C(=O)C[C@@H](C(=O)NCCC[S+](C)[O-])NC1=O (some centres undefined) | 0% | 
CC(C)[C@@H]1NC(=O)[C@H]2CCCN2C(=O)[C@@H]2CCCN2C(=O)C[C@H](C(=O)O)NC1=O | 0% | 
O=C(CCCCCC(=O)N/N=C/c1ccc(-c2ccccc2)cc1)NO |  | IC50 (Histone deacetylase 8; read-out: pIC50 (converted)): 0.891 µM
CC(C)[C@@H]1NC(=O)[C@H]2CCCN2C(=O)[C@@H]2CCCN2C(=O)C[C@@H](C(=O)NCCSSCCNC(=O)[C@@H]2CC(=O)N3CCC[C@H]3C(=O)N3CCC[C@@H]3C(=O)N[C@@H](C(C)C)C(=O)N2)NC1=O | 0% | 
CC(C)[C@@H]1NC(=O)[C@@H]2CCCN2C(=O)[C@H]2CCCN2C(=O)C[C@@H](C(=O)NCCCSSCCCNC(=O)[C@@H]2CC(=O)N3CCC[C@@H]3C(=O)N3CCC[C@H]3C(=O)N[C@@H](C(C)C)C(=O)N2)NC1=O | 0% | 
CCCCCC(=O)NO |  | IC50 (Histone deacetylase 8; read-out: pIC50 (converted)): 2.51 µM
CC(C)[C@@H]1NC(=O)[C@@H]2CCCN2C(=O)[C@H]2CCCN2C(=O)C[C@@H](C(=O)NCCCN)NC1=O | 0% | 
CC(C)[C@@H]1NC(=O)[C@H]2CCCN2C(=O)[C@@H]2CCCN2C(=O)C[C@H](C(=O)Cc2ccccc2)NC1=O | 0% | 
CN(C)c1ccc(C(=O)NCCCCCCC(=O)NO)cc1 |  | IC50 (Histone deacetylase 8; read-out: pIC50 (converted)): 3.16 µM
Cc1ccc(CN(Cc2ccc(C(=O)NO)cc2)S(=O)(=O)c2ccc(F)c(C)c2)cc1 |  | IC50 (Histone deacetylase 8; read-out: pIC50 (converted)): 5.62 µM
CC(C)[C@@H]1NC(=O)[C@@H]2CCCN2C(=O)[C@H]2CCCN2C(=O)C[C@@H](C(=O)NCCSSCCNC(=O)[C@@H]2CC(=O)N3CCC[C@@H]3C(=O)N3CCC[C@H]3C(=O)N[C@@H](C(C)C)C(=O)N2)NC1=O | 0% | 
CC(C)[C@@H]1NC(=O)[C@@H]2CCCN2C(=O)[C@H]2CCCN2C(=O)C[C@H](C(=O)O)NC1=O | 0% | 
CC(C)[C@@H]1NC(=O)[C@@H]2CCCN2C(=O)[C@H]2CCCN2C(=O)C[C@H](C(=O)NCCCC(=O)NO)NC1=O | 25.8% | 
CC(C)[C@@H]1NC(=O)[C@@H]2CCCN2C(=O)[C@H]2CCCN2C(=O)C[C@@H](C(=O)NCCCS)NC1=O | 0.84% | 
O=C(CCCCCCC(=O)Nc1cccc(C(=O)O)c1)NO |  | IC50 (Histone deacetylase 8; read-out: pIC50 (converted)): 1.91 µM
CC(C)[C@@H]1NC(=O)[C@H]2CCCN2C(=O)[C@@H]2CCCN2C(=O)C[C@H](C(=O)NCCSSCCNC(=O)[C@H]2CC(=O)N3CCC[C@H]3C(=O)N3CCC[C@@H]3C(=O)N[C@@H](C(C)C)C(=O)N2)NC1=O | 0% | 
CSCCCNC(=O)[C@@H]1CC(=O)N2CCC[C@@H]2C(=O)N2CCC[C@H]2C(=O)N[C@@H](C(C)C)C(=O)N1 | 0% | 
CC(C)[C@@H]1NC(=O)[C@@H]2CCCN2C(=O)[C@H]2CCCN2C(=O)C[C@H](C(=O)NCCSSCCNC(=O)[C@H]2CC(=O)N3CCC[C@@H]3C(=O)N3CCC[C@H]3C(=O)N[C@@H](C(C)C)C(=O)N2)NC1=O | 0% | 
CC(C)[C@@H]1NC(=O)[C@H]2CCCN2C(=O)[C@@H]2CCCN2C(=O)C[C@@H](C(=O)NCCCO)NC1=O | 0% | 
O=C(CS)NCCCCCC(=O)Nc1ccccc1 |  | IC50 (Histone deacetylase 8; read-out: pIC50 (converted)): 50.1 µM
COC(=O)CCCNC(=O)[C@H]1CC(=O)N2CCC[C@@H]2C(=O)N2CCC[C@H]2C(=O)N[C@@H](C(C)C)C(=O)N1 | 0% | 
CSCCCNC(=O)[C@@H]1CC(=O)N2CCC[C@H]2C(=O)N2CCC[C@@H]2C(=O)N[C@@H](C(C)C)C(=O)N1 | 0% | 
